In patent publication US8455475B2 (Gruenenthal GmbH, priority 2009, dated 2013):

Each molecule was assayed against T1, rat B1R (bradykinin receptor 1) (Rattus norvegicus, UniProt P97583) (assay: FLIPR Ca2+ assay (Fluo-4) on CHO K1 cells stably transfected with the B1R gene of the rat (rB1R cells): % inhibition at 10 μM / IC50, agonist Des-Arg9-bradykinin). Settings: CHO-K1, rat B1R.
T1 construct: expressed in transfected cells; host or cells: CHO K1 cells
T1 sequence (P97583 1-337): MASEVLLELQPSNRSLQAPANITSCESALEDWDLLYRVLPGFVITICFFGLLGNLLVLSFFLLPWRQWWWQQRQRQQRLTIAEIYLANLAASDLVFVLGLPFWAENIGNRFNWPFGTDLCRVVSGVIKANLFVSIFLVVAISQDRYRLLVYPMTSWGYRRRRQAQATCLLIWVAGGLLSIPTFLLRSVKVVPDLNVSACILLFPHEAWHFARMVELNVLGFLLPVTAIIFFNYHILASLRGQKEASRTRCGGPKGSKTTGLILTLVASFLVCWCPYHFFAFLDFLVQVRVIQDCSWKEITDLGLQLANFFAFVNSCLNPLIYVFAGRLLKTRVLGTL
Format: cell-based
Procedure: The agonistic or antagonistic action of substances can be quantified on the bradykinin receptor 1 (B1R) of the human and rat species with ectopically expressing cell lines (CHO K1 cells) and with the aid of a Ca^2+-sensitive dyestuff (Fluo-4) in a fluorescent imaging plate reader (FLIPR). The figure in % activation is based on the Ca^2+ signal after addition of Lys-Des-Arg^9-bradykinin (0.5 nM) or Des-Arg^9-bradykinin (100 nM). Antagonists lead to a suppression of the Ca^2+ inflow after addition of the agonist. % inhibition compared with the maximum achievable inhibition is stated.
The agonistic or antagonistic action of substances can be determined on the bradykinin receptor 1 (B1R) of the human and rat species with the following assay. In accordance with this assay, the Ca^2+ inflow through the channel is quantified with the aid of a Ca^2+-sensitive dyestuff (type Fluo-4, Molecular Probes Europe BV, Leiden, Holland) in a fluorescent imaging plate reader (FLIPR, Molecular Devices, Sunnyvale, USA).
Chinese hamster ovary cells (CHO K1 cells) transfected stably with the human B1R gene (hB1R cells) or the B1R gene of the rat (rB1R cells) are used. For functional studies, these cells are plated out on black 96-well plates with a clear base (BD Biosciences, Heidelberg, Germany or Greiner, Frickenhausen, Germany) in a density of 20,000-35,000 cells/well. The cells are left overnight at 37° C. and 5% CO2 in culture medium (hB1R cells: Nutrient Mixture Ham's F12, Gibco Invitrogen GmbH, Karlsruhe, Germany or DMEM, Sigma-Aldrich, Taufkirchen, Germany; rB1R cells: D-MEM/F12, Gibco Invitrogen GmbH, Karlsruhe, Germany) with 10 vol. % FBS (foetal bovine serum, Gibco Invitrogen GmbH, Karlsruhe, Germany or PAN Biotech GmbH, Aidenbach, Germany). On the following day, the cells are loaded for 60 min at 37° C. with 2.13 μM Fluo-4 (Molecular Probes Europe BV, Leiden Holland) in HBSS buffer (Hank's buffered saline solution, Gibco Invitrogen GmbH, Karlsruhe, Germany) with 2.5 mM probenecid (Sigma-Aldrich, Taufkirchen, Germany) and 10 mM HEPES (Sigma-Aldrich, Taufkirchen, Germany). The plates are then washed 2× with HBSS buffer, and HBSS buffer which additionally contains 0.1% BSA (bovine serum albumin; Sigma-Aldrich, Taufkirchen, Germany), 5.6 mM glucose and 0.05% gelatine (Merck KGaA, Darmstadt, Germany) is added. After a further incubation of 20 minutes at room temperature, the plates are inserted into the FLIPR for the Ca^2+ measurement. Alternatively, the plates are washed with buffer A (15 mM HEPES, 80 mM NaCl, 5 mM KCl, 1.2 mM CaCl2, 0.7 mM MgSO4, 2 g/l glucose, 2.5 mM probenecid), buffer A is added and the plates are loaded with 2.5 μM Fluo-4 and 0.025% Pluronic F127 (Sigma-Aldrich, Taufkirchen, Germany). Thereafter, the cells are washed 2× with buffer A and incubated for 30 minutes at room temperature with buffer A, which additionally contains 0.05% BSA and 0.05% gelatine, and thereafter inserted into the FLIPR for the Ca^2+ measurement. The Ca^2+-dependent fluorescence is measured here before and after addition of substances (λex=488 nm, λem=540 nm). Quantification is by measurement of the highest fluorescence intensity (FC, fluorescence counts) over time.
The FLIPR protocol consists of 2 additions of substance. Test substances (10 μM) are first pipetted on to the cells and the Ca^2+ inflow is compared with the control (hB1R: Lys-Des-Arg^9-bradykinin>=50 nM; rB1R: Des-Arg^9-bradykinin 10 μM). This gives the result in % activation based on the Ca^2+ signal after addition of Lys-Des-Arg^9-bradykinin (>=50 nM) or Des-Arg^9-bradykinin (10 μM). After incubation for 10-20 minutes, Lys-Des-Arg^9-bradykinin (hB1R) or Des-Arg^9-bradykinin (rB1R) in the concentration of the EC80 is applied and the inflow of Ca^2+ is likewise determined. Antagonists lead to a suppression of the Ca^2+ inflow. % inhibition compared with the maximum achievable inhibition is calculated.
For determination of the IC50 value, the substances are added in various concentrations. […]

SMILES	inhibition at 10 µM [%]
CC1(C)Cc2ccc(C(=O)N3CCC4(CC3)CCN(c3ccncc3)CC4)cc2C1NC(=O)c1cc(Cl)ccc1C(F)(F)F (stereo not drawn) [IND_CC-314, 5-Chloro-N-[2,2-dimethyl-6-(9-pyridin-4-yl-3,9-diazaspiro[5.5]undecane-3-carbonyl)-1,3-dihydro-inden-1-yl]-2-(trifluoromethyl)-benzamide]	80
CC1(C)CC(NC(=O)c2cc(Cl)ccc2C(F)(F)F)c2cc(C(=O)N3CCC4(CC3)CCN(c3ccncc3)CC4)ccc21 (stereo not drawn) [IND_CC-315, 5-Chloro-N-[3,3-dimethyl-6-(3-pyridin-4-yl-3,9-diazaspiro[5.5]undecane-9-carbonyl)-1,2-dihydro-inden-1-yl]-2-(trifluoromethyl)-benzamide]	101
O=C(NC1CCc2ccc(C(=O)N3CCC4(CCN(c5ccncc5)CC4)C3)cc21)c1cc(Cl)ccc1C(F)(F)F (stereo not drawn) [IND_CC-316, 5-Chloro-N-[6-(8-pyridin-4-yl-2,8-diazaspiro[4.5]decane-2-carbonyl)-2,3-dihydro-1H-inden-1-yl]-2-(trifluoromethyl)-benzamide]	100
Cc1ccc(C(=O)NC2c3cc(C(=O)N4CCC5(CC4)CCN(c4ccncc4)CC5)ccc3CC2(C)C)c(F)c1 (stereo not drawn) [IND_CC-317, N-[2,2-Dimethyl-6-(9-pyridin-4-yl-3,9-diazaspiro[5.5]undecane-3-carbonyl)-1,3-dihydro-inden-1-yl]-2-fluoro-4-methyl-benzamide]	60
Cc1ccc(C(=O)NC2CC(C)(C)c3ccc(C(=O)N4CCC5(CC4)CCN(c4ccncc4)CC5)cc32)c(F)c1 (stereo not drawn) [IND_CC-318, N-[3,3-Dimethyl-6-(3-pyridin-4-yl-3,9-diazaspiro[5.5]undecane-9-carbonyl)-1,2-dihydro-inden-1-yl]-2-fluoro-4-methyl-benzamide]	100
Cc1ccc(C(=O)NC2CCc3ccc(C(=O)N4CCC5(CCN(c6ccncc6)CC5)C4)cc32)c(F)c1 (stereo not drawn) [IND_CC-319, 2-Fluoro-4-methyl-N-[6-(8-pyridin-4-yl-2,8-diazaspiro[4.5]decane-2-carbonyl)-2,3-dihydro-1H-inden-1-yl]-benzamide]	102
CN(C1CCc2ccc(C(=O)N3CCC4(CC3)CCN(c3ccncc3)CC4)cc21)S(=O)(=O)c1ccc(C(F)(F)F)cc1Cl (stereo not drawn) [IND_CC-320, 2-Chloro-N-methyl-N-[6-(9-pyridin-4-yl-3,9-diazaspiro[5.5]undecane-3-carbonyl)-2,3-dihydro-1H-inden-1-yl]-4-(trifluoromethyl)-benzenesulfonic acid amide]	83
CN(C1CCc2ccc(C(=O)N3CCC4(CC3)CCN(c3ccncc3)CC4)cc21)S(=O)(=O)c1c(Cl)cccc1Cl (stereo not drawn) [IND_CC-321, 2,6-Dichloro-N-methyl-N-[6-(9-pyridin-4-yl-3,9-diazaspiro[5.5]undecane-3-carbonyl)-2,3-dihydro-1H-inden-1-yl]-benzenesulfonic acid amide]	95
O=C(c1ccc2c(c1)C(NS(=O)(=O)c1c(Cl)cccc1Cl)CC2)N1CCC2(CC1)CCN(c1ccncc1)CC2 (stereo not drawn) [IND_CC-322, 2,6-Dichloro-N-[6-(9-pyridin-4-yl-3,9-diazaspiro[5.5]undecane-3-carbonyl)-2,3-dihydro-1H-inden-1-yl]-benzenesulfonic acid amide]	102
O=C(c1ccc2c(c1)C(NS(=O)(=O)c1c(Cl)cccc1Cl)CC2)N1CCC2(CC1)CCN(c1ccncc1)C2 (stereo not drawn) [IND_CC-323, 2,6-Dichloro-N-[6-(2-pyridin-4-yl-2,8-diazaspiro[4.5]decane-8-carbonyl)-2,3-dihydro-1H-inden-1-yl]-benzenesulfonic acid amide]	100
CN(C1CCc2ccc(C(=O)N3CCC4(CC3)CCN(c3ccncc3)CC4)cc21)S(=O)(=O)c1ccc(Cl)cc1Cl (stereo not drawn) [IND_CC-324, 2,4-Dichloro-N-methyl-N-[6-(9-pyridin-4-yl-3,9-diazaspiro[5.5]undecane-3-carbonyl)-2,3-dihydro-1H-inden-1-yl]-benzenesulfonic acid amide]	98
CN(C1CCc2ccc(C(=O)N3CCC4(CC3)CCN(c3ccncc3)CC4)cc21)S(=O)(=O)c1ccccc1Cl (stereo not drawn) [IND_CC-325, 2-Chloro-N-methyl-N-[6-(9-pyridin-4-yl-3,9-diazaspiro[5.5]undecane-3-carbonyl)-2,3-dihydro-1H-inden-1-yl]-benzenesulfonic acid amide]	102
Cc1cc(F)ccc1S(=O)(=O)N(C)C1CCc2ccc(C(=O)N3CCC4(CC3)CCN(c3ccncc3)CC4)cc21 (stereo not drawn) [IND_CC-326, 4-Fluoro-N,2-dimethyl-N-[6-(9-pyridin-4-yl-3,9-diazaspiro[5.5]undecane-3-carbonyl)-2,3-dihydro-1H-inden-1-yl]-benzenesulfonic acid amide]	100
CN(C1CCc2ccc(C(=O)N3CCC4(CC3)CCN(c3ccncc3)CC4)cc21)S(=O)(=O)c1cccc(C(F)(F)F)c1 (stereo not drawn) [IND_CC-327, N-Methyl-N-[6-(9-pyridin-4-yl-3,9-diazaspiro[5.5]undecane-3-carbonyl)-2,3-dihydro-1H-inden-1-yl]-3-(trifluoromethyl)-benzenesulfonic acid amide]	101
O=C(c1ccc2c(c1)C(NS(=O)(=O)c1cccc(C(F)(F)F)c1)CC2)N1CCC2(CC1)CCN(c1ccncc1)CC2 (stereo not drawn) [IND_CC-328, N-[6-(9-Pyridin-4-yl-3,9-diazaspiro[5.5]undecane-3-carbonyl)-2,3-dihydro-1H-inden-1-yl]-3-(trifluoromethyl)-benzenesulfonic acid amide]	98
O=C(c1ccc2c(c1)C(NS(=O)(=O)c1cccc(C(F)(F)F)c1)CC2)N1CCC2(CC1)CCN(c1ccncc1)C2 (stereo not drawn) [IND_CC-329, N-[6-(2-Pyridin-4-yl-2,8-diazaspiro[4.5]decane-8-carbonyl)-2,3-dihydro-1H-inden-1-yl]-3-(trifluoromethyl)-benzenesulfonic acid amide]	97
CC1(C)Cc2ccc(C(=O)N3CCC4(CC3)CCN(c3ccncc3)CC4)cc2C1NS(=O)(=O)c1ccc(C(F)(F)F)cc1Cl (stereo not drawn) [IND_CC-330, 2-Chloro-N-[2,2-dimethyl-6-(9-pyridin-4-yl-3,9-diazaspiro[5.5]undecane-3-carbonyl)-1,3-dihydro-inden-1-yl]-4-(trifluoromethyl)-benzenesulfonic acid amide]	67
CC1(C)CC(NS(=O)(=O)c2ccc(C(F)(F)F)cc2Cl)c2cc(C(=O)N3CCC4(CC3)CCN(c3ccncc3)CC4)ccc21 (stereo not drawn) [IND_CC-331, 2-Chloro-N-[3,3-dimethyl-6-(3-pyridin-4-yl-3,9-diazaspiro[5.5]undecane-9-carbonyl)-1,2-dihydro-inden-1-yl]-4-(trifluoromethyl)-benzenesulfonic acid amide]	94
